How the values were obtained:
KB = experiment: Cytotoxicity against human KB cells after 72 hrs sulforhodamine B colorimetric assay
A549 [1] = experiment: Cytotoxicity against human A549 cells after 72 hrs sulforhodamine B colorimetric assay; conditions: A549, 72 h
MDA-MB-231 = experiment: cells; conditions: Homo sapiens, MDA-MB-231, 72 h
Description: Cytotoxicity against human MDA-MB-231 cells after 72 hrs sulforhodamine B colorimetric assay

cells = conditions: Homo sapiens, KBVIN, 72 h
Description: Cytotoxicity against multidrug-resistant human KBVIN cells after 72 hrs sulforhodamine B colorimetric assay

A549 [2] = experiment: Ratio of topotecan IC50 to compound IC50 for human A549 cells after 72 hrs sulforhodamine B colorimetric assay; assay type: functional
[3] = Ratio of topotecan IC50 to compound IC50 for multidrug-resistant human KBVIN cells after 72 hrs sulforhodamine B colorimetric assay; assay type: functional

SMILES | IC50 (KB) [nM] | IC50 (A549 [1]) [nM] | IC50 (MDA-MB-231) [nM] | IC50 (cells) [nM] | Ratio IC50 (A549 [2]) | Ratio IC50 [3]
CC[C@@]1(O)C(=O)OCc2c1cc1n(c2=O)Cc2c-1nc1ccccc1c2CNc1cccc(Cl)c1 | 71.3 | 50.4 | 96.1 | 68.8 |  | 
CC[C@@]1(O)C(=O)OCc2c1cc1n(c2=O)Cc2c-1nc1ccccc1c2CN1CCN(C)CC1 | 89.5 | 62.2 | 110 | 274 |  | 
CC[C@@]1(O)C(=O)OCc2c1cc1n(c2=O)Cc2c-1nc1ccccc1c2CN1CCCCC1 | 49.9 | 21.9 | 69.9 | 20.5 |  | 
CC[C@@]1(O)C(=O)OCc2c1cc1n(c2=O)Cc2c-1nc1ccccc1c2CNCc1ccccc1 | 180 | 122 | 337 | 117 |  | 
CC[C@@]1(O)C(=O)OCc2c1cc1n(c2=O)Cc2c-1nc1ccccc1c2CNc1ccccc1OC | 4.6 | 2.3 | 26.4 | 14.9 | 7 | 7
CC[C@@]1(O)C(=O)OCc2c1cc1n(c2=O)Cc2c-1nc1ccccc1c2CNc1ccccc1 | 78.3 | 53.2 | 78.1 | 47.9 |  | 
CC[C@@]1(O)C(=O)OCc2c1cc1n(c2=O)Cc2c-1nc1ccccc1c2CNc1ccc(Br)cc1 | 82.1 | 59.2 | 114 | 63.3 |  | 
CC[C@@]1(O)C(=O)OCc2c1cc1n(c2=O)Cc2c-1nc1ccccc1c2CN(C(C)C)C(C)C | 813 | 534 | 1110 | 1060 |  | 
CC[C@@]1(O)C(=O)OCc2c1cc1n(c2=O)Cc2c-1nc1ccccc1c2CNc1ccccc1Cl | 37.1 | 17 | 57.6 | 12.8 |  | 
CC[C@@]1(O)C(=O)OCc2c1cc1n(c2=O)Cc2c-1nc1ccccc1c2CNc1ccc(F)cc1 | 5 | 6.3 | 30 | 13.2 | 7 | 7
CC[C@@]1(O)C(=O)OCc2c1cc1n(c2=O)Cc2c-1nc1ccccc1c2CNc1ccccn1 | 78.6 | 51.4 | 108 | 70.6 |  | 
CCCNCc1c2c(nc3ccccc13)-c1cc3c(c(=O)n1C2)COC(=O)[C@]3(O)CC | 15 | 4.8 | 31.6 | 21.7 | 7 | 7
CC[C@@]1(O)C(=O)OCc2c1cc1n(c2=O)Cc2c-1nc1ccccc1c2CNc1ccc(Cl)cc1 | 39.7 | 39.1 | 64.4 | 12.9 |  | 
CC[C@@]1(O)C(=O)OCc2c1cc1n(c2=O)Cc2c-1nc1ccccc1c2CNc1ccc(C)cc1 | 81.7 | 58.7 | 92.7 | 79.5 |  | 
CC[C@@]1(O)C(=O)OCc2c1cc1n(c2=O)Cc2c-1nc1ccccc1c2CNC1CCCCC1 | 36.2 | 18.8 | 53.2 | 16.5 |  | 
CC(=O)O[C@H]1C(=O)[C@@]2(C)[C@H]([C@H](OC(=O)c3ccccc3)[C@]3(O)C[C@H](OC(=O)[C@H](O)[C@@H](NC(=O)c4ccccc4)c4ccccc4)C(C)=C1C3(C)C)[C@]1(OC(C)=O)CO[C@@H]1C[C@@H]2O [PACLITAXEL] | 3.9 | 5.7 | 6.6 | 1440 |  | 
CC[C@@]1(O)C(=O)OCc2c1cc1n(c2=O)Cc2c-1nc1ccccc1c2CNc1ccc(OC)cc1 | 75.8 | 47 | 84.2 | 77.3 |  | 
CC[C@@]1(O)C(=O)OCc2c1cc1n(c2=O)Cc2c-1nc1ccccc1c2CNCCO | 208 | 150 | 378 | 183 |  | 
CC[C@@]1(O)C(=O)OCc2c1cc1n(c2=O)Cc2c-1nc1ccccc1c2CNc1cccc2ccccc12 | 61.5 | 36.2 | 64 | 78 |  | 
CC[C@@]1(O)C(=O)OCc2c1cc1n(c2=O)Cc2c-1nc1ccccc1c2CN1CCCC1 | 37.1 | 15.5 | 60.9 | 20.8 |  | 

Reference: ChEMBL document CHEMBL3352035, “Design and synthesis of new 7-(N-substituted-methyl)-camptothecin derivatives as potent cytotoxic agents” (Bioorg Med Chem Lett, 2014)
